Values after ≈ are worked out from the molar mass of the structure shown. “Also recorded” adds a separate entry of the source.
How the values were obtained:
K. pneumoniae PCI602 = assay: MIC, agar plate dilution method; format: cell-based; conditions: Klebsiella pneumoniae, PCI602, 20 h, 37° C., SDA with 5% horse blood, read-out: Antimicrobial activity (MIC)
Procedure, shortened: (§1)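 Minimum inhibitory concentration by agar plate dilution on disk agar with 5% horse blood; 5 μl of roughly 10^6 CFU/ml inoculated, 37° C. for 20 h.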

S. pneumoniae Type 1 = assay: MIC, agar plate dilution method; format: cell-based; conditions: Streptococcus pneumoniae, TYPE1; 37° C., 20 hours, SDA with 5% horse blood; read-out: Antimicrobial activity (MIC)
Procedure, shortened: (§2)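 MIC by agar plate dilution: ~10^6 CFU/ml inocula (5 μl spots) on Sensitivity disk agar with 5% horse blood, 37 °C for 20 h. Seed cultures grown in Sensitivity test broth, except Streptococcus, Branhamella and Haemophilus, which were precultured on blood agar.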

B. catarrhalis W-0500 = assay: MIC, agar plate dilution method; format: cell-based; conditions: Moraxella catarrhalis, W0500, 20 h, read-out: Antimicrobial activity (MIC), 37° C., 20 hours, SDA with 5% horse blood
Procedure, shortened: as §1

S. aureus MS15009/pMS98 = assay: MIC, agar plate dilution method; format: cell-based; conditions: Staphylococcus aureus, MS15009/PMS98, 20 h, read-out: Antimicrobial activity (MIC), 37° C., 20 hours, SDA with 5% horse blood
Procedure, shortened: (§3)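 For H. influenzae and Branhamella, cells came from blood agar plates; staphylococci came from broth seed cultures. Plates of sensitivity disk agar plus 5% horse blood received 5 μl spots (~10^6 CFU/ml) and stood at 37° C. for 20 hours prior to reading.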

S. aureus MS15009/pMS99 = assay: MIC, agar plate dilution method; format: cell-based; conditions: Staphylococcus aureus, MS15009/PMS99, 20 h, read-out: Antimicrobial activity (MIC)
Procedure, shortened: as §3

S. epidermidis ATCC14990 = assay: MIC, agar plate dilution method; format: cell-based; conditions: Staphylococcus epidermidis, ATCC14990, 20 h, read-out: Antimicrobial activity (MIC), 37° C., 20 hours, SDA with 5% horse blood
Procedure, shortened: as §1

S. aureus M126 = assay: MIC, agar plate dilution method; format: cell-based; conditions: Staphylococcus aureus, 37° C., 20 hours, SDA with 5% horse blood, read-out: Antimicrobial activity (MIC)
Procedure, shortened: as §1

S. aureus MS15026 = assay: MIC, agar plate dilution method; format: cell-based; conditions: Staphylococcus aureus, 37° C., 20 hours, SDA with 5% horse blood, read-out: Antimicrobial activity (MIC)
Procedure, shortened: as §1

B. catarrhalis W-0506 = assay: MIC, agar plate dilution method; format: cell-based; conditions: Moraxella catarrhalis, W0506; 37° C., 20 hours, SDA with 5% horse blood; read-out: Antimicrobial activity (MIC)
Procedure, shortened: as §1

M. luteus ATCC9341 = assay: MIC, agar plate dilution method; format: cell-based; conditions: Micrococcus luteus, ATCC9341; 37° C., 20 hours, SDA with 5% horse blood; read-out: Antimicrobial activity (MIC)
Procedure, shortened: as §1

S. aureus 209P JC-1 = assay: MIC, agar plate dilution method; format: cell-based; conditions: Staphylococcus aureus, 209P, 20 h, 37° C., 20 hours, SDA with 5% horse blood; read-out: Antimicrobial activity (MIC)
Procedure, shortened: as §1

S. aureus M133 = assay: MIC, agar plate dilution method; format: cell-based; conditions: Staphylococcus aureus, M133, 20 h, read-out: Antimicrobial activity (MIC), 37° C., 20 hours, SDA with 5% horse blood
Procedure, shortened: as §1

S. pneumoniae IP692 = assay: MIC, agar plate dilution method; format: cell-based; conditions: Streptococcus pneumoniae, IP692, 20 h, 37° C., 20 hours, SDA with 5% horse blood; read-out: Antimicrobial activity (MIC)
Procedure, shortened: as §2

E. faecalis W-73 = assay: MIC, agar plate dilution method; format: cell-based; conditions: Enterococcus faecalis, W73, 20 h, read-out: Antimicrobial activity (MIC)
Procedure, shortened: as §1

S. aureus MS15027 = assay: MIC, agar plate dilution method; format: cell-based; conditions: Staphylococcus aureus, MS15027, 20 h, read-out: Antimicrobial activity (MIC), 37° C., 20 hours, SDA with 5% horse blood
Procedure, shortened: as §1

H. influenzae Type b = assay: MIC, agar plate dilution method; format: cell-based; conditions: Haemophilus influenzae, 20 h, read-out: Antimicrobial activity (MIC), 37° C., 20 hours, SDA with 5% horse blood
Procedure, shortened: as §1

test strains = assay: Antimicrobial activity in vitro, test strains overall; format: cell-based
Procedure, shortened: as §1

Enterococcus feacalis = assay: Antimicrobial activity in vitro; format: cell-based; conditions: vs clarithromycin
Procedure: (§4) The effect of the first aspect of the present invention resides in the creation of a novel and useful 16-membered macrolide derivative. Antimicrobial activities of the compounds of the present invention were determined by measuring minimum inhibitory concentration (MIC). Minimum inhibitory concentration was determined by the agar plate dilution method in the following manner.
(§5) Test strains were subjected to seed culture using Sensitivity test broth (STB, Nissui Pharmaceutical) except that the strains belonging to the genus Streptococcus, Branhamella and Haemophilus were cultured on blood agar plate. A 5 μl portion of cell suspension of the test strains having about 10^6 CFU/ml was inoculated into Sensitivity disk agar (SDA, Nissui Pharmaceutical) supplemented with 5% horse blood and incubated at 37° C. for 20 hours. Then, MIC was measured. […] Antimicrobial activities in vitro of the compounds (1) and (2) are shown in Table 1, and those of the compounds (3) and (4) in Table 3.

[1] = test system: drug-resistant strain of Staphylococcus; assay: Antimicrobial activity in vitro; format: cell-based; conditions: vs clarithromycin
Procedure: as §4, §5

Streptococcus pneumoniae = assay: Antimicrobial activity in vitro; format: cell-based; conditions: compared with MDM and LM-A7
Procedure: as §4, §5

Haemophilus influenzae = assay: Antimicrobial activity in vitro; format: cell-based; conditions: vs clarithromycin
Procedure: as §4, §5

Branhamella catarrhalis = assay: Antimicrobial activity in vitro; format: cell-based; conditions: vs clarithromycin
Procedure: as §4, §5

[2] = test system: clinically important Gram-positive bacteria; assay: Antimicrobial activity / growth inhibition; format: cell-based
Procedure, shortened: as §1

[3] = test system: certain bacteria, for example, a species of acid-fast bacteria; conditions: Chemistry Letters, 769 (1977); cited from earlier work

SMILES: CCC(=O)O[C@H]1[C@H](C)O[C@@H](O[C@H]2[C@H](N(C)C)[C@@H](O)[C@H](O[C@H]3[C@@H](CC=O)C[C@@H](C)[C@@H](O)/C=C/C=C/C[C@@H](C)OC(=O)C[C@@H](O)[C@@H]3OC)O[C@@H]2C)C[C@@]1(C)OC [(2), 3"-O-methylleucomycin A7]
- MIC (K. pneumoniae PCI602): > 100 µg/mL
- MIC (S. pneumoniae Type 1): 0.05 µg/mL (≈ 0.0648 µM)
- MIC (B. catarrhalis W-0500): 0.39 µg/mL (≈ 0.505 µM)
- MIC (S. aureus MS15009/pMS98): 0.2 µg/mL (≈ 0.259 µM)
- MIC (S. aureus MS15009/pMS99): > 100 µg/mL
- MIC (S. epidermidis ATCC14990): 0.2 µg/mL (≈ 0.259 µM)
- MIC (S. aureus M126): > 100 µg/mL
- MIC (S. aureus MS15026): > 100 µg/mL
- MIC (B. catarrhalis W-0506): 0.78 µg/mL (≈ 1.01 µM)
- MIC (M. luteus ATCC9341): < 0.025 µg/mL
- MIC (S. aureus 209P JC-1): 0.1 µg/mL (≈ 0.13 µM)
- MIC (S. aureus M133): 0.2 µg/mL (≈ 0.259 µM)
- MIC (S. pneumoniae IP692): < 0.025 µg/mL
- MIC (E. faecalis W-73): 0.39 µg/mL (≈ 0.505 µM)
- MIC (S. aureus MS15027): 0.2 µg/mL (≈ 0.259 µM)
- MIC (H. influenzae Type b): 6.25 µg/mL (≈ 8.1 µM)
- antimicrobial activities in vitro compared with corresponding compounds having free 3"-hydroxyl (MDM, LM-A7) (test strains; against most of test strains): twice as high
- antimicrobial activities in comparison with rokitamycin (test strains; vs rokitamycin): generally excellent except for a Gram-negative bacterium (Branhamella catarrhalis); also recorded: slightly superior to those of rokitamycin
- antimicrobial activity compared with clarithromycin (Enterococcus feacalis): comparable or slightly superior activities
- antimicrobial activity compared with clarithromycin [1]: definitely superior antimicrobial activity
- antimicrobial activity against Streptococcus pneumoniae (Streptococcus pneumoniae): considerably improved antimicrobial activity
- antimicrobial activity compared with clarithromycin (Haemophilus influenzae): comparable or slightly superior activities
- antimicrobial activity compared with clarithromycin (Branhamella catarrhalis): inferior to that of clarithromycin
- antimicrobial activities (in words) [2]: strong antimicrobial activities

SMILES: CO[C@@H]1[C@@H](O[C@@H]2O[C@H](C)[C@@H](O[C@H]3C[C@@](C)(OC)[C@@H](OC(=O)CC(C)C)[C@H](C)O3)[C@H](N(C)C)[C@H]2O)[C@@H](CC=O)C[C@@H](C)C(=O)/C=C/C=C/C[C@@H](C)OC(=O)C[C@H]1OC(C)=O [3"-O-methylcarbomycin B]
- antimicrobial activity compared with carbomycin B [3]: higher antimicrobial activity than carbomycin B
